Test results: patent US8835489B2, “Compounds of the pterocarpanquinone family, method for preparing the same, pharmaceutical composition containing the new compounds of the pterocarpanquinone family, uses and therapeutic method” (Universidade Federal Do Rio de Janeiro, priority 2008, dated 2014)

Assays:
TNF-α release by PBMC = assay: LPS-stimulated release of TNF-α by PBMC in vitro; assay type: cell-based, human; details: FIG. 3, p<0.05
Description: Mononuclear cells were obtained from peripheral blood of healthy donors by gradient centrifugation in Ficoll. 20 ml peripheral blood were carefully added to 16 mL of Ficoll followed by centrifugation at 1500×g for 30 minutes. Once collected, the PBMC were washed twice with saline and resuspended in culture field RPMI 1640 containing 0.1 mg streptomycin/mL, penicillin 100 U/mL and supplemented with 10% of FCS. The PBMC resuspended in RPMI were seeded in 24-well plate (8×10^5 cells/well). The cells were incubated with LPS at a concentration of 2 μg/mL at 37° C. in 4% CO2 for 2 hours. After incubation with LPS, the supernatant was collected and centrifuged at 14,000×g for 1 minute to rule out any possible cell. The supernatant was stored at −20° C. for subsequent cytokine. […] A group of cells received only the vehicle.

neutrophils in LBA = assay: LPS inhalation in mice, neutrophils in bronchoalveolar lavage; details: in vivo, FIG. 4, p<0.05 compared to vehicle group
Description: For inhalation of LPS, we used a glass inhalation chamber with a volume of 1 liter, with a capacity of 8 mice. The mice were placed in this chamber for five minutes and inhaled aerosols produced by positive pressure of 2 mL of a suspension of LPS containing 0.5 mg/mL, prepared in physiological saline (NaCl 0.9%). The control group inhaled saline only. Groups of animals were treated with LQB dissolved in physiological saline with 10% ethanol (vehicle) at doses of 1, 10 and 100 mg/kg. The substances were administered in a volume of 200 μL intraperitoneal (ip) 1 hour before LPS inhalation. In parallel, groups of animals were treated with 200 μL of the vehicle. Three hours after inhalation of LPS, animals were sacrificed by cervical dislocation, their tracheas were exposed, cannulated and lungs were washed with saline to a final volume of 1.5 mL in tubes kept at 4° C. […] An aliquot of 300 μL of lavage was used to count and identify the cells and the remainder was centrifuged at 1,500×g for 10 minutes (Sorvall, USA). […] The total number of cells was determined in a cell counter type Coulter Counter (Coulter Electronics Inc.—USA). The identification of different cell types present in BAL cytospin was made after 200 μl of LBA at 80×g for 1 minute (Shandon—USA). The slides prepared from cytospin stained with Diff-Quick kit (Shandon, USA). We counted approximately 200 cells on each slide. […]

O=C1C2=C(C(=O)c3ccccc31)[C@H]1Oc3ccccc3[C@H]1CO2 [LQB1]
release of TNF-α by PBMC (TNF-α release by PBMC): inhibiting release of TNF-α | release of neutrophils in LBA (neutrophils in LBA): inhibiting the release of neutrophils
